Converted amounts (≈) assume the structure as drawn. Where two headings read alike, the source gives them in different places.
Assays:
[1] = in vitro; assay type: cell-based; conditions: human; Hela cells; read-out: cytotoxic activity IC50
Text: (§2) HeLa (human epithelial carcinoma cell line), HCT-116 (human colon cancer cell line), MCF-7 (human breast adenocarcinoma cell line), A549 (human lung adenocarcinoma cell line), SH-SY5Y (human neuroblastoma cell line), MDA-MB-231 (human breast cancer cell line), HO8910 (human ovarian carcinoma cell line), and MGC-803 (human stomach carcinoma cell line) were ordered from Shanghai Institute of Biochemistry and Cell Biology, Chinese Academy of Sciences (Shanghai, China). K562 (human leukaemia cell line), BEL-7402 (human hepatic carcinoma cell line), L-02 (human normal hepatic cell line), GES-1 (human gastric epithelial cell line), U87 (human primary glioblastoma cell line), ASPC-1 (human pancreatic cancer cell line), PC-3 (human prostate carcinoma cell line), and NCI-H446 (human small cell lung cancer cell line) were ordered from the American Type Culture Collection (ATCC, Gaithersburg, MD, USA).

[2] = in vitro; assay type: cell-based; conditions: human; MCF-7 cells; read-out: cytotoxic activity IC50
Text: as §2

[3] = in vitro; assay type: cell-based; conditions: human; BEL-7402 cells; read-out: cytotoxic activity IC50
Text: as §2

[4] = in vitro; assay type: cell-based; conditions: human; NCI-H446 cells; read-out: cytotoxic activity IC50
Text: as §2

[5] = in vitro; assay type: cell-based; conditions: human; K562 cells; read-out: cytotoxic activity IC50
Text: as §2

[6] = in vitro; assay type: cell-based; conditions: human; HO8910 cells; read-out: cytotoxic activity IC50
Text: as §2

[7] = in vitro; assay type: cell-based; conditions: human; A549 cells; read-out: cytotoxic activity IC50
Text: as §2

[8] = in vitro; assay type: cell-based; conditions: human; L-02 cells; read-out: cytotoxic activity IC50
Text: as §2

[9] = in vitro; assay type: cell-based; conditions: human; U87 cells; read-out: cytotoxic activity IC50
[10] = in vitro; assay type: cell-based; conditions: human; HCT-116 cells; read-out: cytotoxic activity IC50
Text: as §2

[11] = in vitro; assay type: cell-based; conditions: human; ASPC-1 cells; read-out: cytotoxic activity IC50
[12] = in vitro; assay type: cell-based; conditions: human; SH-SY5Y cells; read-out: cytotoxic activity IC50
[13] = in vitro; assay type: cell-based; conditions: human; MGC-803 cells; read-out: cytotoxic activity IC50
Text: as §2

[14] = in vitro; assay type: cell-based; conditions: human; PC-3 cells; read-out: cytotoxic activity IC50
[15] = test system: Vibrio parahemolyticus; assay: Antimicrobial activity (MIC), agar dilution method; assay type: cell-based; conditions: performed in triplicates
Procedure: (§1) The antimicrobial activities of 1–6 against Bacillus cereus, Proteus species, Mycobacterium phlei, Bacillus subtilis, Vibrio parahemolyticus, Edwardsiella tarda, MRCNS, and MRSA were evaluated as previously reported by using the agar dilution method. […] All strains were donated by the Qingdao municipal hospital.

[16] = in vitro; conditions: human, GES-1 cells (gastric epithelial cell line)
[17] = test system: Bacillus subtilis; assay: microbe, parasite or virus in culture
Procedure: as §1

[18] = test system: Mycobacterium phlei; assay: microbe, parasite or virus in culture
Procedure: as §1

[19] = test system: Edwardsiella tarda; assay: microbe, parasite or virus in culture
Procedure: as §1

[20] = test system: Bacillus cereus; assay: microbe, parasite or virus in culture
Procedure: as §1

[21] = in vitro; assay type: cell-based; conditions: human; MDA-MB-231 cells; read-out: cytotoxic activity IC50
Text: as §2

[22] = test system: MRCNS
Procedure: as §1

[23] = test system: MRSA
Procedure: as §1

[24] = test system: Proteus species; assay: organism not typed
Procedure: as §1

[25] = dissolved in solvent mixture MeOH-H2O and exposed to air for two weeks; LC-MS
Text: It is well-known that some artificial compounds are formed from natural compounds due to oxidation when exposed to air.

| Structure (SMILES) | IC50 [1] | IC50 [2] | IC50 [3] | IC50 [4] | IC50 [5] | IC50 [6] | IC50 [7] | IC50 [8] | IC50 [9] | IC50 [10] | IC50 [11] | IC50 [12] | IC50 [13] | IC50 [14] | MIC, V. parahemolyticus [15] | IC50 [16] | MIC, B. subtilis [17] | MIC, M. phlei [18] | MIC, E. tarda [19] | MIC, B. cereus [20] | further results |
| --- | --- | --- | --- | --- | --- | --- | --- | --- | --- | --- | --- | --- | --- | --- | --- | --- | --- | --- | --- | --- | --- |
| CO[C@H](C)[C@@H](/C=C/C=C/C(=O)N(C)[C@H]1CCCN(C)C(=O)[C@H](C)N(C)C(=O)[C@H](C(C)C)N(C)C1=O)OC [Compound 3] | > 30 µM | > 30 µM | > 30 µM | > 30 µM | > 30 µM | > 30 µM | > 30 µM | > 30 µM | > 30 µM | > 30 µM | > 30 µM | > 30 µM | > 30 µM | > 30 µM | 25.0 µM (≈ 13.1 µg/mL) | > 30 µM | >50.0 µM | >50.0 µM | 25.0 µM (≈ 13.1 µg/mL) | >50.0 µM | IC50 [21]: > 30 µM; MIC, MRCNS [22]: >50.0 µM; MIC, MRSA [23]: >50.0 µM; MIC, P. species [24]: >50.0 µM |
| C/C=C/C=C/C=C/C(=O)N[C@H]1CCCNC(=O)[C@H](C)N(C)C(=O)[C@H](C(C)C)N(C)C1=O [Compound 6, sclerotiotide B] | > 30 µM | > 30 µM | > 30 µM | > 30 µM | > 30 µM | > 30 µM | > 30 µM | > 30 µM | > 30 µM | > 30 µM | > 30 µM | > 30 µM | > 30 µM | > 30 µM | >50.0 µM | > 30 µM | >50.0 µM | >50.0 µM | >50.0 µM | >50.0 µM | chemical stability (products formed) [25]: compounds 4 and 5 were also detected from the product; IC50 [21]: > 30 µM; MIC, MRCNS [22]: >50.0 µM; MIC, MRSA [23]: >50.0 µM; MIC, P. species [24]: >50.0 µM |
| CC(C)[C@H]1C(=O)N(C)[C@@H](C)C(=O)NCCC[C@H](NC(=O)/C=C/C=C/C(=O)O)C(=O)N1C [Compound 1] | > 30 µM | > 30 µM | > 30 µM | > 30 µM | > 30 µM | > 30 µM | > 30 µM | > 30 µM | > 30 µM | > 30 µM | > 30 µM | > 30 µM | > 30 µM | > 30 µM | 3.13 µM (≈ 1.37 µg/mL) | > 30 µM | 6.25 µM (≈ 2.73 µg/mL) | 3.13 µM (≈ 1.37 µg/mL) | 1.56 µM (≈ 0.681 µg/mL) | 3.13 µM (≈ 1.37 µg/mL) | IC50 [21]: > 30 µM; MIC, MRCNS [22]: 12.5 µM (≈ 5.46 µg/mL); MIC, MRSA [23]: 25.0 µM (≈ 10.9 µg/mL); MIC, P. species [24]: 3.13 µM (≈ 1.37 µg/mL) |
| CC(C)[C@H]1C(=O)N(C)[C@@H](C)C(=O)NCCC[C@H](NC(=O)/C=C/C=C/C=O)C(=O)N1C [Compound 5, sclerotiotide F] | > 30 µM | > 30 µM | > 30 µM | > 30 µM | > 30 µM | > 30 µM | > 30 µM | > 30 µM | > 30 µM | > 30 µM | > 30 µM | > 30 µM | > 30 µM | > 30 µM | 25.0 µM (≈ 10.5 µg/mL) | > 30 µM | >50.0 µM | >50.0 µM | 25.0 µM (≈ 10.5 µg/mL) | 25.0 µM (≈ 10.5 µg/mL) | IC50 [21]: > 30 µM; MIC, MRCNS [22]: >50.0 µM; MIC, MRSA [23]: >50.0 µM; MIC, P. species [24]: 25.0 µM (≈ 10.5 µg/mL) |
| COC(=O)/C=C/C=C/C(=O)N[C@H]1CCCNC(=O)[C@H](C)N(C)C(=O)[C@H](C(C)C)N(C)C1=O [Compound 2, (2′E,4′E)-cyclo-[(NMe-L-Ala)-(NMe-L-Val)-(Nα-6-methoxy-6-oxohexa-2,4-dienoyl-L-Orn)]] | > 30 µM | > 30 µM | > 30 µM | > 30 µM | > 30 µM | > 30 µM | > 30 µM | > 30 µM | > 30 µM | > 30 µM | > 30 µM | > 30 µM | > 30 µM | > 30 µM | 6.25 µM (≈ 2.82 µg/mL) | > 30 µM | 12.5 µM (≈ 5.63 µg/mL) | 12.5 µM (≈ 5.63 µg/mL) | 1.56 µM (≈ 0.703 µg/mL) | 6.25 µM (≈ 2.82 µg/mL) | IC50 [21]: > 30 µM; MIC, MRCNS [22]: 25.0 µM (≈ 11.3 µg/mL); MIC, MRSA [23]: 25.0 µM (≈ 11.3 µg/mL); MIC, P. species [24]: 6.25 µM (≈ 2.82 µg/mL) |
| CO[C@H](/C=C/C=C/C(=O)N[C@H]1CCCNC(=O)[C@H](C)N(C)C(=O)[C@H](C(C)C)N(C)C1=O)[C@@H](C)O [Compound 4, (2′E,4′E)-cyclo-[(NMe-L-Ala)-(NMe-L-Val)-(Nα-(6R,7R)-7-hydroxy-6-methoxyocta-2,4-dienoyl-L-Orn)]] | > 30 µM | > 30 µM | > 30 µM | > 30 µM | > 30 µM | > 30 µM | > 30 µM | > 30 µM | > 30 µM | > 30 µM | > 30 µM | > 30 µM | > 30 µM | > 30 µM | 25.0 µM (≈ 12 µg/mL) | > 30 µM | >50.0 µM | >50.0 µM | 25.0 µM (≈ 12 µg/mL) | 25.0 µM (≈ 12 µg/mL) | IC50 [21]: > 30 µM; MIC, MRCNS [22]: >50.0 µM; MIC, MRSA [23]: >50.0 µM; MIC, P. species [24]: 25.0 µM (≈ 12 µg/mL) |
| O=C(O)c1cn(C2CC2)c2cc(N3CCNCC3)c(F)cc2c1=O [CIP, Ciprofloxacin, reference compound] | – | – | – | – | – | – | – | – | – | – | – | – | – | – | – | – | – | – | – | – | MIC ([17]; Bacillus subtilis, read-out: MIC, B. subtilis): 0.195 µM (≈ 0.0646 µg/mL); MIC ([18]; Mycolicibacterium phlei, read-out: MIC, M. phlei): 0.78 µM (≈ 0.258 µg/mL); MIC ([19]; Edwardsiella tarda, read-out: MIC, E. tarda): 0.0125 µM (≈ 0.00414 µg/mL); MIC ([20]; Bacillus cereus, read-out: MIC, B. cereus): 0.78 µM (≈ 0.258 µg/mL); MIC ([24]; read-out: MIC, P. species): 0.195 µM (≈ 0.0646 µg/mL) |

Source: paper PMC7694092, “Antibacterial Cyclic Tripeptides from Antarctica-Sponge-Derived Fungus Aspergillus insulicola HDN151418” (Marine Drugs, 2020)
